Patent publication US9187526B2, “Peptide based inhibition of caPCNA interaction in cancer” (priority 2006, dated 2015)
Read-outs that look alike come from different tables or passages of the source. Where no end group is shown, it is not given here.

Columns and labels:
caPCNA = target: T1, caPCNA (Homo sapiens, UniProt P12004); assay: XPG-GST fusion protein immunoprecipitation of PCNA isoforms from MCF7 cell extract, 2D-PAGE Western blot; assay type: binding; conditions: 30 μg MCF7 cell extract, 2 h incubation, glutathione agarose beads
T1 construct: precipitate caPCNA selectively from the MCF7 breast cancer cell extract; endogenous in cells; host or cells: MCF7 cell extract (XPG-GST partner expressed in bacteria)
Description: MCF7 cell (human breast adenocarcinoma cell line) extracts were processed for purification of the synthesome. MCF7 derived synthesome was then subjected to chromatography steps on phosphocellulose, phenyl Sepharose, and Q-Sepharose matrices as described in (Malkas, L. and Hickey, R. (1996) The expression, purification and characterization of DNA polymerases involved in papovavirus replication. In: Methods in Enzymol Vol. 275: Viral Polymerases and Related Proteins, Acad. Press (133-167).). The Q-Sepharose eluted fraction containing both the nmPCNA and caPCNA isoforms was then loaded onto a XPG-GST affinity column. The column was eluted and both the column flow-through and eluate were subjected to 2D-PAGE Western blot analysis using PC10 antibody. The PC10 antibody was used at a dilution of 1:1000 in the Western blot analysis.
caPCNA was specifically immunoprecipitated from a MCF7 cell extract using XPG-GST fusion protein (FIG. 3). Thirty microgram samples of MCF7 cell extract were incubated with XPG-GST fusion protein for two hours, followed by incubation with Glutathione agarose beads for one hour to capture the XPG-GST. The mixture was then centrifuged to collect the beads, and the supernatant and the agarose bead pellet containing the XPG-GST PCNA complex were subjected to 2D-PAGE Western blot analysis. The Western blots were then probed using commercially available PC10 antibody.

[1] = system: caPCNA binding to caPCNA antibody (caPCNAab); assay: Competition ELISA: caPCNA captured by plate-bound caPCNA antibody (caPCNAab), detected with C20 antibody; parameters: species or system human; conditions: increasing amounts of peptide incubated simultaneously with purified caPCNA
Procedure: The wells are washed and then incubated with a goat anti-PCNA antibody (C20) that recognizes the C-terminal 20 amino acids of PCNA. Bound C20 antibody is visualized with an alkaline phosphatase conjugated anti-goat IgG antibody, and bound antibody complex is visualized with […], and quantified by spectrophotometry. The competition experiments shown in this study involve the simultaneous incubation of the ca(cs)PCNA with increasing amounts of the antigenic peptide fragment of caPCNA (referred to as B1 or the PCNA aa126-133 peptide) in this assay.
The assay described in FIG. 5 was used to test the specificity of the antibody combining site for the epitope defined by PCNA aa126-133 (FIG. 6). The ELISA assay was performed as described in aim 1, however, either the B1 peptide or a peptide sequence (H-Ser-Ala-Cys-Glu-Gln-IIe-Leu-Lys-Asp-Thr-OH) (SEQ ID NO: 28) taken from within the yeast myosin protein was used to compete for the antibody in the presence of purified caPCNA.
The ELISA described herein was used to monitor the ability of two peptides to disrupt caPCNA binding to the bound caPCNA antibody. One peptide (H-[…]OH) (SEQ ID NO: 29) corresponding to the p21cip/waf1 proteins site of interaction with PCNA was evaluated in this assay, and is shown to have no effect on the binding of caPCNA to the bound caPCNA antibody in this ELISA assay (FIG. 7). […] Therefore, the XPG peptide interacts with its recognized PCNA binding site in order to block binding of the PCNA protein to the caPCNA antibody. This happens if the epitope recognized by the antibody was masked by specifically binding this XPG peptide.

cancer cells = assay: Incubation of RYIRS-tagged caPCNA-derived peptide with cancer cells in vitro (DMSO or liposome uptake); assay type: cell-based; conditions: with doxorubicin
Procedure: The peptides disclosed herein are synthesized using standard peptide synthesis procedures and equipments or can be obtained commercially (e.g., United Biochemical Research Co., Seattle, Wash.). […] Uptake of this peptide was initiated by incubation of this peptide with the cancer cells in the presence of dimethyl sulfoxide (DMSO) in either phosphate buffered saline (PBS) or culture media containing 0.2-2% DMSO, without serum for about 4-24 hours. Uptake of this peptide was also efficiently mediated by encapsulation of the peptide in a liposome formulation and subsequent incubation with the cancer cells at 37° C. for about 4-24 hours.

U937 leukemia cells = assay: Cytotoxicity in U937 leukemia cell cultures, liposome-mediated peptide transfer, flow cytometry with propidium iodide and annexin V; assay type: cell-based
Description: Peptide fragments derived from the protein Proliferating Cell Nuclear Antigen (PCNA) are identified herein that have the ability to act, in conjunction with DNA damaging agents (e.g., doxorubicin), to enhance the therapeutic effects of such agents to treat a variety of cancer cells. The peptides are derived from the amino acid sequence within PCNA, for example, encompassing amino acids 126-133. This sequence appears to be uniquely exposed in cancer cells, but not non-cancer cells. By preventing PCNA-binding proteins, including XPG, from binding directly to caPCNA in cancer cells the effects of chemotherapeutic drugs including DNA damaging agents are enhanced. […] Exponentially growing U937 leukemia cell cultures in tissue culture media were used. A liposome mediated protein transfer technique was used wherein the caPCNA peptide (126-133) and doxorubicin were encapsulated in liposomes and added to the cell cultures at 10 μM. […] This approach produced over a 50% killing of the cultured cells within 24 hours that was peptide/drug specific, and not due to liposome mediated cytotoxicity.
As a positive control, these leukemia cells were also incubated for several hours (either 4 or 24 hours) with a peptide derived from the p21waf protein, and as a negative control, a peptide derived from the yeast myosin protein. […] Cell killing vs. cell damage was assessed by flow cytometry using propidium iodide and annexin V staining.

breast cancer cells = assay: Flow-cytometric analysis of breast cancer cells treated with peptide-containing liposomes (propidium iodide / annexin V); assay type: cell-based
Procedure: Exponentially growing breast cancer cells were grown in culture media to 50% of confluence (FIG. 1). The media was then changed and liposomes that were prepared from transfection reagent (PJR) were incubated with the cells in fresh media for an additional 24 hours prior to performing flow-cytometric analysis of the treated cells.
Liposomes contained either the carboxyl region of the p21waf1 protein, and/or the caPCNA antigenic site peptide (LGIPEQEY) (SEQ ID NO: 1). After 24 hours, the cells were stained with propidium iodide and fluorescently labeled annexin V antibody. Healthy growing cells were not permeable to the antibody as shown in lower left panel of FIG. 1, while permeabilized healthy cells susceptible to the transfection reagent, but still growing, were stained with propidium iodide. Cells staining with the annexin V antibody indicate some level of damage associated with the induction of apoptotic cells (lower right quadrant, FIG. 1), and/or cells that had died from either apoptosis or necrosis (upper right quadrant, FIG. 1). […] Cells treated with only the transfection reagent slightly affected the condition of the cells and lead to a slight increase in the number of apoptotic and necrotic cells. […] In addition, approximately 5-7% of the remaining cells appeared to be undergoing apoptosis and was slated to die.

T1 sequence (P12004 whole entry, the tested form may be a part, canonical isoform): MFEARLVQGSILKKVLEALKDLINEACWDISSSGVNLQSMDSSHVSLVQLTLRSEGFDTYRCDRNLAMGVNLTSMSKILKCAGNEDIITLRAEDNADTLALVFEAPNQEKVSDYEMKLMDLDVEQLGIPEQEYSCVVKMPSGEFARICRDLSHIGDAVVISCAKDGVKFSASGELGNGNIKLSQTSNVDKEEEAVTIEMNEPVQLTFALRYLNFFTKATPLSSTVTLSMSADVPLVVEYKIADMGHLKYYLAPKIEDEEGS

Compound: XPG-GST fusion protein: 29 amino acid fragment of the XPG protein coupled to Glutathione-S-transferase, expressed in bacteria (LKQLDAQQTQLRIDSFFRLAQQEKEDAKR; also: fused to glutathione-S-transferase)
- selective binding/precipitation of caPCNA versus nmPCNA (caPCNA): recognize and precipitate caPCNA selectively

Compound: H-Ser-Ala-Cys-Glu-Gln-IIe-Leu-Lys-Asp-Thr-OH (H-SACEQILKDT-OH) [MAL4]
- competition with caPCNA for binding to the caPCNA antibody [1]: does not compete

Compound: LGIPEQEYRYIRS [caPCNA-derived peptide (LGIPEQEY)(RYIRS)]
- augmentation of cytotoxic effects of chemotherapeutic agents (cancer cells): augments the cytotoxic effects

Compound: p21 peptide: peptide derived from the p21waf protein (carboxyl region of p21waf1), positive control (GRKRRQTSMTDRYHSKRRLIFS) [reference compound]
- cell kill (U937 leukemia cells; U937 leukemia cells, absence of doxorubicin, incubation 4 or 24 hours): > 60%
- cytotoxic response (cell killing) (breast cancer cells): induced cell killing

Compound: COc1cccc2c1C(=O)c1c(O)c3c(c(O)c1C2=O)C[C@@](O)(C(=O)CO)C[C@@H]3O[C@H]1C[C@H](N)[C@H](O)[C@H](C)O1 [doxorubicin]
- cell killing (breast cancer cells; breast cancer cells, low doses of doxorubicin alone): significant level of cell killing

Compound: H-Gln-Thr-Gln-Leu-Arg-Ile-Asp-Ser-Phe-Phe-Arg-OH (H-QTQLRIDSFFR-OH) [XPG peptide]
- competition with caPCNA for binding to the caPCNA antibody [1]: effectively competed

Compound: LGIPEQEY [caPCNA peptide (126-133), LGIPEQEY]
- intrinsic cytotoxicity (U937 leukemia cells; U937 cells, peptide as single agent, liposome encapsulated, 10 μM): intrinsic cytotoxicity
- increase of the cytotoxicity of doxorubicin (U937 leukemia cells; U937 cells, peptide plus a range of concentrations of doxorubicin): approximately 3 fold
- cytotoxic response (cell killing) (breast cancer cells; breast cancer cells, peptide alone in liposomes, 24 hours): strong cytotoxic response

Compound: H-Gly-Arg-Lys-Arg-Arg-Gln-Thr-Ser-Met-Thr-Asp-Arg-Tyr-His-Ser-Lys-Arg-Arg-Leu-Ile-Phe-Ser-OH (H-GRKRRQTSMTDRYHSKRRLIFS-OH) [p21cip/waf1 peptide (SEQ ID NO: 29)]
- competition with caPCNA for binding to the caPCNA antibody [1]: no effect
